Laboratory results reported in patent publication US20200181104A1, “SSAO INHIBITORS AND USES THEREOF” (METACRINE, INC., priority 2018, published 2020).
pIC50: −log10 of the molar value. Counter-ions that a name gives are not always drawn.

Biological target: T1, Recombinant Human SSAO/VAP-1/AOC3 (Homo sapiens, UniProt Q16853)
T1 construct: purchased R&D systems 3957-AO
T1 sequence (Q16853 1-763): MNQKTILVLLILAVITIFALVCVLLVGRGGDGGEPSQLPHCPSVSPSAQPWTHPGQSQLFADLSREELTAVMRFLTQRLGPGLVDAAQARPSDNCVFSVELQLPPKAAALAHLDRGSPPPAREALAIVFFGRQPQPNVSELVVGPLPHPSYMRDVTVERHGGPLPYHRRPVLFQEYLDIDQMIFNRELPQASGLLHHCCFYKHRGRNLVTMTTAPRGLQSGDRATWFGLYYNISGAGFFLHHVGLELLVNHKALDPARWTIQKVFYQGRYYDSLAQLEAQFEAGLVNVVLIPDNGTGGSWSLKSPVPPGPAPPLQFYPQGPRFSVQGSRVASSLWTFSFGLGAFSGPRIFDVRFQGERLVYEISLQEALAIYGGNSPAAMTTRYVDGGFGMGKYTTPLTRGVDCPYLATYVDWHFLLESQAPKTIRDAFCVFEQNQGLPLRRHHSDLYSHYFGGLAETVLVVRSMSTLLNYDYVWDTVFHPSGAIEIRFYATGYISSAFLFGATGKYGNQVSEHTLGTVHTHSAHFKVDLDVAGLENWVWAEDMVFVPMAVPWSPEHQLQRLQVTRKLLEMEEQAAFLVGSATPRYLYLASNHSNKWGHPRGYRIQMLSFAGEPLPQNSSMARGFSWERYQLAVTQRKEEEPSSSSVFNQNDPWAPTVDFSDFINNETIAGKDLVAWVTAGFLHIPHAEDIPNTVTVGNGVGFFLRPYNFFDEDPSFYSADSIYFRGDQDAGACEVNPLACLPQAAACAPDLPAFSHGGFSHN
Test: Human Semicarbazide-Sensitive Amine Oxidase (SSAO) Assay
Format: biochemical
Conditions: recombinant enzyme, 30 minutes preincubation at 37° C., benzylamine substrate, Amplex Ultra Red/HRP fluorescence
In short: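 IC50 from kinetic Amplex Ultra Red/HRP fluorescence (ex 544, em 590 nm, 30-120 min) after benzylamine addition. Beforehand, 6-10 compound dilutions were preincubated 30 min at 37 °C with recombinant human SSAO in 50 mM HEPES (enzyme working concentration 2.5 μg/ml).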

pIC50, ≥ 8.00:
NC/C(=C\F)COc1ccc(C23CCC(C(=O)N4CC(F)(CO)C4)(CC2)CC3)cc1 [Compound 2.60, (E)-(4-(4-((2-(aminomethyl)-3-fluoroallyl)oxy)phenyl)bicyclo[2.2.2]octan-1-yl)(3-fluoro-3-(hydroxymethyl)azetidin-1-yl)methanone]
NC/C(=C\F)COc1ccc(C23CCC(C(=O)NCCC(=O)N4CCOCC4)(CC2)CC3)cc1 [Compound 2.68, (E)-4-(4-((2-(aminomethyl)-3-fluoroallyl)oxy)phenyl)-N-(3-morpholino-3-oxopropyl)bicyclo[2.2.2]octane-1-carboxamide]
COc1cc(CNC(=O)C23CCC(c4ccc(OC/C(=C/F)CN)cc4)(CC2)CC3)ccn1 [Compound 2.134, (E)-4-(4-((2-(aminomethyl)-3-fluoroallyl)oxy)phenyl)-N-((2-methoxpyridin-4-yl)methyl)bicyclo[2.2.2]octane-1-carboxamide]
NC/C(=C\F)COc1ccc(C23CCC(C(=O)NCCc4nnn[nH]4)(CC2)CC3)cc1 [Compound 2.11, (E)-N-(2-(1H-tetrazol-5-yl)ethyl)-4-(4-((2-(aminomethyl)-3-fluoroallyl)oxy)phenyl) bicyclo[2.2.2]octane-1-carboxamide]
NC/C(=C\F)COc1ccc(C23CCC(C(=O)N4CC(O)C4)(CC2)CC3)cc1 [Compound 2.29, (E)-(4-(4-((2-(aminomethyl)-3-fluoroallyl)oxy)phenyl)bicyclo [2.2.2]octan-1-yl)(3-hydroxyazetidin-1-yl)methanone]
CNC(=O)C12CCC(c3ccc(OC/C(=C/F)CN)cc3)(CC1)CC2 [Compound 2.03, (E)-4-(4-((2-(aminomethyl)-3-fluoroallyl)oxy)phenyl)-N-methylbicyclo[2.2.2]octane-1-carboxamide Hydrochloride]
NC/C(=C\F)COc1ccc(C23CCC(C(=O)N4CC5CCC(C4)O5)(CC2)CC3)cc1 [Compound 2.71, (E)-(4-(4-((2-(aminomethyl)-3-fluoroallyl)oxy)phenyl)bicyclo [2.2.2]octan-1-yl)(8-oxa-3-azabicyclo[3.2.1]octan-3-yl)methanone]
NC/C(=C\F)COc1ccc(C23CCC(C(=O)NCc4cncc(C(F)(F)F)c4)(CC2)CC3)cc1 [Compound 2.159, (E)-4-(4-((2-(aminomethyl)-3-fluoroallyl)oxy)phenyl)-N-((5-(trifluoromethyl)pyridin-3-yl)methyl)bicyclo[2.2.2]octane-1-carboxamide]
CC1(CNC(=O)C23CCC(c4ccc(OC/C(=C/F)CN)cc4)(CC2)CC3)CCOCC1 [Compound 2.36, (E)-4-(4-((2-(aminomethyl)-3-fluoroallyl)oxy)phenyl)-N-((4-methyltetrahydro-2H-pyran-4-yl)methyl)bicyclo[2.2.2]octane-1-carboxamide]
COC(=O)C1CCN(C(=O)C23CCC(c4ccc(OC/C(=C/F)CN)cc4)(CC2)CC3)CC1 [Compound 2.12, (E)-methyl 1-(4-(4-((2-(aminomethyl)-3-fluoroallyl)oxy)phenyl)bicyclo[2.2.2]octane-1-carbonyl)piperidine-4-carboxylate]
CNC(=O)COC12CCC(c3ccc(OC/C(=C/F)CN)cc3)(CC1)CC2 [Compound 8, (E)-2-((4-(4-((2-(aminomethyl)-3-fluoroallyl)oxy)phenyl)bicyclo[2.2.2]octan-1-yl)oxy)-N-methylacetamide]
NC/C(=C\F)COc1ccc(C23CCC(C(=O)N4CC(CO)C4)(CC2)CC3)cc1 [Compound 2.43, (E)-(4-(4-((2-(aminomethyl)-3-fluoroallyl)oxy)phenyl)bicyclo [2.2.2]octan-1-yl)(3-(hydroxymethyl)azetidin-1-yl)methanone]
CC(C)NC(=O)C12CC3CC(C1)CC(c1ccc(OC/C(=C/F)CN)cc1)(C3)C2 [Compound 6.04, (E)-3-(4-((2-(aminomethyl)-3-fluoroallyl)oxy)phenyl)-N-isopropyladamantane-1-carboxamide]
CO[C@H]1CCC[C@@H](NC(=O)C23CCC(c4ccc(OC/C(=C/F)CN)cc4)(CC2)CC3)C1 [Compound 2.116, 4-(4-(((E)-2-(aminomethyl)-3-fluoroallyl)oxy)phenyl)-N-((1R,3S)-3-methoxycyclohexyl)bicyclo [2.2.2]octane-1-carboxamide]
COC1CC(NC(=O)C23CCC(c4ccc(OC/C(=C/F)CN)cc4)(CC2)CC3)C1 (stereo not shown) [Compound 2.91, 4-(4-(((E)-2-(aminomethyl)-3-fluoroallyl)oxy)phenyl)-N-((1r,3r)-3-methoxycyclobutyl)bicyclo [2.2.2]octane-1-carboxamide]
COC1(CNC(=O)C23CCC(c4ccc(OC/C(=C/F)CN)cc4)(CC2)CC3)CCOCC1 [Compound 2.98, (E)-4-(4-((2-(aminomethyl)-3-fluoroallyl)oxy)phenyl)-N-((4-methoxytetrahydro-2H-pyran-4-yl)methyl)bicyclo[2.2.2]octane-1-carboxamide]
NC/C(=C\F)COc1ccc(C23CC(C(=O)NC4CCOCC4)(C2)C3)cc1 [Compound 3, (E)-3-(4-((2-(aminomethyl)-3-fluoroallyl)oxy)phenyl)-N-(tetrahydro-2H-pyran-4-yl)bicyclo[1.1.1]pentane-1-carboxamide]
CNC(=O)C12CCC(c3ccc(OC/C(=C\F)CN)c(C)c3)(CC1)CC2 [Compound 2.01, (Z)-4-(4-((2-(aminomethyl)-3-fluoroallyl)oxy)-3-methylphenyl)-N-methylbicyclo[2.2.2]octane-1-carboxamide]
NC/C(=C\F)COc1ccc(C23CCC(C(=O)NCCOC4CCC4)(CC2)CC3)cc1 [Compound 2.120, (E)-4-(4-((2-(aminomethyl)-3-fluoroallyl)oxy)phenyl)-N-(2-cyclobutoxyethyl)bicyclo [2.2.2]octane-1-carboxamide]
NC/C(=C\F)COc1ccc(C23CCC(C(=O)NCc4ccnnc4)(CC2)CC3)cc1 [Compound 2.139, (E)-4-(4-((2-(aminomethyl)-3-fluoroallyl)oxy)phenyl)-N-(pyridazin-4-ylmethyl)bicyclo[2.2.2]octane-1-carboxamide]
CO[C@@H]1CCCC(NC(=O)C23CCC(c4ccc(OC/C(=C/F)CN)cc4)(CC2)CC3)C1 (stereo in doubt) [Compound 2.115, 4-(4-(((E)-2-(aminomethyl)-3-fluoroallyl)oxy)phenyl)-N-((1S,3R)-3-methoxycyclohexyl)bicyclo [2.2.2]octane-1-carboxamide]
NC/C(=C\F)COc1ccc(C23CCC(C(=O)NC4CCOC4)(CC2)CC3)cc1 (stereo not shown) [Compound 2.21, (E)-4-(4-((2-(amino-methyl)-3-fluoroallyl)oxy)phenyl)-N-(tetrahydrofuran-3-yl)bicyclo[2.2.2]octane-1-carboxamide]
